Assay results taken from PubChem BioAssay (NCI).
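Dose response: 5 concentrations. Exposure: 48 h. Format: 96-well plates. Endpoint: linear interpolation; highest concentration if not reached. TGI is the concentration that stops growth completely.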

Columns and labels:
Assay in all cases: NCI tumour cell line growth inhibition, 48 h
U251 CNS = tested on: U251 CNS
SK-MEL-2 melanoma = tested on: SK-MEL-2 melanoma
NCI-H522 lung = tested on: NCI-H522 lung
UACC-257 melanoma = tested on: UACC-257 melanoma
CCRF-CEM leukemia = tested on: CCRF-CEM leukemia
IGROV1 ovarian = tested on: IGROV1 ovarian
MALME-3M melanoma = tested on: MALME-3M melanoma
LOX IMVI melanoma = tested on: LOX IMVI melanoma
HCC-2998 colon = tested on: HCC-2998 colon
HOP-62 NSCLC = tested on: HOP-62 NSCLC

Compound | TGI (U251 CNS) [µM] | TGI (SK-MEL-2 melanoma) [µM] | TGI (NCI-H522 lung) [µM] | TGI (UACC-257 melanoma) [µM] | TGI (CCRF-CEM leukemia) [µM] | TGI (IGROV1 ovarian) [µM] | TGI (MALME-3M melanoma) [µM] | TGI (LOX IMVI melanoma) [µM] | TGI (HCC-2998 colon) [µM] | TGI (HOP-62 NSCLC) [µM]
C(=C\c1c2oc(-c3ccccc3)cc(-c3ccccc3)c-2c2ccccc12)/C=C1\c2ccccc2-c2c(-c3ccccc3)cc(-c3ccccc3)[o+]c21 | > 100 | > 100 | > 100 | > 100 | > 100 | > 100 | > 100 | > 100 | > 100 | > 100
CCOC(=O)c1cn(CC)c2ccc3c(c2c1=O)S(=O)(=O)C=C3 | > 100 | > 100 | > 100 | > 100 | > 100 | > 100 | > 100 | > 100 | > 100 | > 100
O=C(O)/C=C/c1ccncc1 | 14 | > 100 | > 100 | > 100 | > 100 | > 100 | > 100 | > 100 | > 100 | 0.746
N#CC(NNC(=O)c1ccccc1O)c1c(O)ccc2ccccc12 (stereo not given) | 37.1 | 33.3 | 18.7 | 24.9 | > 90.9 | 33.9 | 27.6 | 6.64 | > 100 | 29.5
CCOC(=O)C1C(c2ccc(OC)cc2)c2c([nH]n(-c3ccccc3)c2=O)CC1(C)O (stereo not given) | > 100 | > 100 | > 100 | > 100 | 35.6 | > 100 | > 100 | > 100 | > 100 | > 100
C=CCNC1=C2C[C@@H](C)C[C@@H](OC)[C@H](OC(=O)CCN(C)C)[C@H](C)/C=C(\C)[C@@H](OC(N)=O)[C@H](OC)/C=C\C=C(/C)C(=O)NC(=CC1=O)C2=O | 21.1 | 12.2 | 17.3 | 16.7 | > 55.3 | 14.5 | 19.2 | 11.2 | 0.752 | 13.4
Cc1ccc(-n2cc(-c3ccc(Cl)cc3)c3c(=N)n(N)cnc32)cc1 | 22.3 | 26.8 | 28 | 21.5 | 51.4 | 24.5 | 26.1 | 29.8 | 19.2 | 27.4
COC1OC(C(=O)O)C2OC(C)(C)OC12 (stereo not given) | > 100 | > 100 | > 100 | > 100 | > 100 | > 100 | > 100 | > 100 | > 100 | > 100
Cc1ccccc1Nc1nc2ccccc2nc1NS(=O)(=O)c1ccccc1 | > 100 | > 100 | > 100 | > 100 | > 100 | > 100 | > 100 | > 100 | > 100 | > 100
Cc1cc2occ(S(=O)(=O)NC(=O)Nc3ccc(Cl)cc3)c(=O)c2c(=O)o1 | > 100 | > 100 | > 100 | > 100 | > 100 | > 100 | > 100 | > 100 | > 100 | > 100
COC(=O)CC1CC2(C(=O)OC)c3[nH]c4ccccc4c3CCN2C1=O (stereo not given) | > 100 | > 100 | > 100 | > 100 | > 100 | > 100 | > 100 | > 100 | > 100 | > 100
COC(=O)[C@@H]1COC(=O)N1 | > 100 | > 100 | > 100 | > 100 | > 100 | > 100 | > 100 | > 100 | > 100 | > 100
Cc1ccc2nc(C(=O)O)c(=O)[nH]c2c1 | > 100 | > 100 | > 100 | > 100 | > 100 | > 100 | > 100 | > 100 | > 100 | > 100
c1ccc(-c2c(-c3[nH]c4ccccc4c3-c3ccccc3)[nH]c3ccccc23)cc1 | 14.8 | 22.1 | 14.6 | 25.1 | 14 | 16.3 | 31.2 | 4.06 | 3.94 | 5.03
O=C1C=C/C(=C/[C@H]2SSC=C[C@]23C=CC(=O)C3)C1 | > 100 | > 76.2 | 27.7 | 99.8 | 9.27 | 48 | 41.5 | > 48.7 | 44.7 | > 73.8
O=C1c2ccccc2C(=O)c2sc(Nc3cc(Cl)ccc3Cl)nc21 | 33.5 | 31.6 | 18.3 | 7.76 | > 100 | 24.3 | 3.33 | 5.78 | 20.7 | 28.9
Cc1cc(=O)n2nc(CSc3nnc(Sc4cc(O)ccc4O)s3)sc2n1 | > 100 | > 100 | 46.2 | > 100 | 48.6 | > 100 | > 100 | 36.3 | > 100 | > 100
CC(NNC(=O)c1ccncc1)c1ccc(Cl)cc1Cl (stereo not given) | > 100 | > 100 | > 100 | > 100 | > 100 | > 100 | > 100 | > 100 | > 100 | > 100
Cc1ccc(NCCN(C)C)c2c(=O)c3cc(O)ccc3sc12 | 8.49 | 35.7 | 11.1 | 20.7 | 5.7 | 17.2 | 11.2 | 7.84 | 10.4 | 6.21
CCc1cc2c(c3c1CCCC3=O)CC1(C2)Cc2cc(CC)c3c(c2C1)C(=O)CCC3 | > 100 | > 100 | > 100 | > 100 | > 100 | > 100 | > 100 | > 100 | > 100 | > 100
CN(C)C(=O)Oc1ccc(C(=S)Nc2ccccc2)cc1 | > 100 | > 100 | > 100 | > 100 | 79.6 | > 100 | > 100 | > 100 | > 100 | > 100
Cc1ccc(NC(=O)C(=O)Cc2cccc[n+]2[O-])cc1C | > 100 | > 100 | > 100 | > 100 | > 100 | > 100 | > 100 | > 100 | > 100 | > 100
c1ccc(Nc2nnc(CCCCCCCCc3nnc(Nc4ccccc4)o3)o2)cc1 | > 100 | > 100 | > 100 | > 100 | > 100 | > 100 | > 100 | > 100 | > 100 | > 100
CSc1nc(C)c2c(n1)N(c1ccc(Cl)cc1)CC2 | > 100 | > 100 | > 100 | > 100 | > 100 | > 100 | > 100 | > 100 | > 100 | > 100
CC(=O)C(C(C)=O)[C@H]1OC(C)(C)O[C@H]1[C@H]1COC(C)(C)O1 | 79.9 | 58.8 | 93.3 | > 100 | > 100 | > 100 | > 100 | > 100 | 86 | > 100
COC(=O)c1ccccc1C1CN=NC12Cc1c(C)ccc(C)c1C2=O (stereo not given) | > 100 | > 100 | > 100 | > 100 | > 100 | > 100 | > 100 | > 100 | > 100 | > 100
O=C(/C(=C/c1ccc(O)cc1)c1ccccc1)c1ccccc1 | 29.7 | 24.1 | 28.7 | 32.9 | 80.2 | 38.3 | 37.1 | 25.9 | 32 | 33.9
CCC1CN2CCc3c([nH]c4ccccc34)[C@@](C(=O)OC)(c3cc4c(cc3OC)N(C)C3C(O)(C(=O)OC)C(C(=O)OC)C5(CC)C=CCN6CCC43C65)C[C@@H](C2)[C@@H]1C(C)(C)C (stereo not given in full) | > 3.52 | > 4.02 | 3.56 | > 7.97 | > 5.53 | > 10 | 2.95 | 2 | 1.52 | 1.25
COc1ccc(/C(CC2OC(=O)c3ccccc32)=N\NC(N)=O)cc1 (stereo not given) | > 100 | > 100 | > 100 | > 100 | > 100 | > 100 | > 100 | > 100 | > 100 | > 100
Cc1cc(C)nc(NS(=O)(=O)c2ccc(Nc3c4ccccc4nc4ccc(C(=O)Nc5ccc(S(=O)(=O)N=C(N)N)cc5)cc34)cc2)n1 | > 100 | > 100 | > 100 | > 100 | > 100 | > 100 | > 100 | 34.4 | > 100 | > 100
